Measurements from US12533313B2, “Inhalable liposomal sustained release composition for use in treating pulmonary diseases” (INSPIRMED CORP., priority 2018, dated 2026).
Where “and” joins values, the source holds several entries; their conditions need not be identical. Equal entries are not always repeated.

Columns and labels:
[1] = Lung retention of nintedanib in an IPF animal model; format: in vivo; details: fibrotic mice, once-daily oral dosing of 60 mg/kg
Protocol: First, pulmonary fibrosis was induced by IT instillation of 2.5 mg/kg bleomycin to each mouse. […] Q2D×2 signifies one dose administered every other day for a total of two doses. Blood and lung tissue samples were collected at predetermined time points (Table 7).

[2] = Lung retention study of liposomal TKI in healthy mice; format: in vivo; details: IT, 3.74 mg/mL, after two hours
Protocol: (§1) A lung retention study of liposomal TKI in healthy mice was conducted to compare the residence times of free form versus liposomal TKI formulations in the mouse lung.

IPF = details: cited from earlier work
[3] = tested on: bleomycin-induced pulmonary fibrosis in mice; test: Efficacy of liposomal and oral nintedanib in an IPF animal model, histopathological evaluation of lung tissue; format: in vivo; details: 60 mg/kg, oral, QD ×10, Day 21, listed as free nintedanib
Protocol: Q2D×4 signifies one dose administered every other day on day 7, 9, 15, and 17. QD×10 signifies mice received once daily dosing on day 7, 8, 9, 10, 11, 14, 15, 16, 17, and 18. Blood and lung tissue samples were collected on day 21.
Efficacy was determined by histopathological evaluation of mouse lung tissue.
Degree of lesions stained with HE was graded from one to five depending on severity: […]

C57BL/6 mice = test: Observations of mice (mortality) during lung retention study; format: in vivo; details: healthy mice, IT 50 μL, 3.74 mg/mL nintedanib
Protocol: as §1

SMILES: COC(=O)c1ccc2c(c1)NC(=O)/C2=C(\Nc1ccc(N(C)C(=O)CN2CCN(C)CC2)cc1)c1ccccc1 [nintedanib]
- Drug retention in mouse lung [1]: no nintedanib was detected in lung tissue after just a few hours
- Drug retained in the lung [2]: almost none of the drug was retained in the lung
- Undesired side effects of oral treatment (IPF; current therapeutic amount): diarrhea (most frequent adverse event), nausea, stomach pain, liver problems, vomiting, decreased appetite, headache, weight loss, and high blood pressure
- Reduction of lung function decline (increased forced vital capacity) compared to placebo (IPF; oral, 150 mg twice a day, clinical trials): approximately 50%
- Mean score (fibrosis) ([3]; per animal (No. 4 to 6)): ~2 and 2.0 and 1.4
- Interstitial and subpleural, multifocal fibrosis scores ([3]; single scores per animal (No. 4 to 6)): 2 (2=slight (1-25%)) (12×) and 1 (1=minimal (<1%)) (3×)
- Observation of surviving mice (C57BL/6 mice): mice were very weak)
- Mortality (C57BL/6 mice; deaths/mice): 2/9 (the 7 surviving
